Measured values reported in US20250288589A1, “PYRIDOPYRIMIDINES AND METHODS OF THEIR USE” (Kineta, Inc., priority 2021, published 2025).

Molecular target: T1, full-length human PIKFYVE (Homo sapiens, UniProt Q9Y2I7, L932S/Q1183K/Q995L/S1033A/S696N/T998S)
T1 construct: A full-length human PIKFYVE [1-2098(end) amino acids and S696N, L932S, Q995L, T998S, S1033A and Q1183K; purchased Carna Biosciences; host or cells: baculovirus expression system
Experiment: PIKfyve biochemical assay (ADP-Glo Kinase assay, Carna Biosciences)
Conditions: GST-PIKFYVE, 10 μM to 3 nM in duplicate, read-out: hPIKfyve IC50
Excerpt: (§1) PIKfyve Biochemical Assay. The biochemical PIKFyve inhibition assays were run by Carna Biosciences according to proprietary methodology based on the Promega ADP-Glo™ Kinase assay. A full-length human PIKFYVE [1-2098(end) amino acids and S696N, L932S, Q995L, T998S, S1033A and Q1183K of the protein having the sequence set forth in NCBI Reference Sequence No. NP_055855.2] was expressed as N-terminal GST-fusion protein (265 kDa) using baculovirus expression system. GST-PIKFYVE was purified by using glutathione sepharose chromatography and used in an ADP-Glo™ Kinase assay (Promega). Reactions were set up by adding the test compound solution, substrate solution, ATP solution and kinase solution, each at 4× final concentrations. Reactions were prepared with assay buffer (50 mM MOPS, 1 mM DTT, pH7.2), mixed, and incubated in black 384 well polystyrene plates for 1 hour at room temperature. ADP-Glo™ reagent was then added for 40 minutes, followed by kinase detection reagent for an additional 40 minutes. The kinase activity was evaluated by detecting relative light units on a luminescence plate reader. Samples were run in duplicate from 10 μM to 3 nM. […] IC50 values were calculated from concentration vs % inhibition curves by fitting to a four-parameter logistic curve.
as §1, with “The” for “PIKfyve Biochemical Assay. The”, “accession number” for “the protein having the sequence set forth in NCBI Reference Sequence No.”, “uM” for “μM”

T1 sequence (Q9Y2I7 whole entry S696N/L932S/Q995L/T998S/S1033A/Q1183K): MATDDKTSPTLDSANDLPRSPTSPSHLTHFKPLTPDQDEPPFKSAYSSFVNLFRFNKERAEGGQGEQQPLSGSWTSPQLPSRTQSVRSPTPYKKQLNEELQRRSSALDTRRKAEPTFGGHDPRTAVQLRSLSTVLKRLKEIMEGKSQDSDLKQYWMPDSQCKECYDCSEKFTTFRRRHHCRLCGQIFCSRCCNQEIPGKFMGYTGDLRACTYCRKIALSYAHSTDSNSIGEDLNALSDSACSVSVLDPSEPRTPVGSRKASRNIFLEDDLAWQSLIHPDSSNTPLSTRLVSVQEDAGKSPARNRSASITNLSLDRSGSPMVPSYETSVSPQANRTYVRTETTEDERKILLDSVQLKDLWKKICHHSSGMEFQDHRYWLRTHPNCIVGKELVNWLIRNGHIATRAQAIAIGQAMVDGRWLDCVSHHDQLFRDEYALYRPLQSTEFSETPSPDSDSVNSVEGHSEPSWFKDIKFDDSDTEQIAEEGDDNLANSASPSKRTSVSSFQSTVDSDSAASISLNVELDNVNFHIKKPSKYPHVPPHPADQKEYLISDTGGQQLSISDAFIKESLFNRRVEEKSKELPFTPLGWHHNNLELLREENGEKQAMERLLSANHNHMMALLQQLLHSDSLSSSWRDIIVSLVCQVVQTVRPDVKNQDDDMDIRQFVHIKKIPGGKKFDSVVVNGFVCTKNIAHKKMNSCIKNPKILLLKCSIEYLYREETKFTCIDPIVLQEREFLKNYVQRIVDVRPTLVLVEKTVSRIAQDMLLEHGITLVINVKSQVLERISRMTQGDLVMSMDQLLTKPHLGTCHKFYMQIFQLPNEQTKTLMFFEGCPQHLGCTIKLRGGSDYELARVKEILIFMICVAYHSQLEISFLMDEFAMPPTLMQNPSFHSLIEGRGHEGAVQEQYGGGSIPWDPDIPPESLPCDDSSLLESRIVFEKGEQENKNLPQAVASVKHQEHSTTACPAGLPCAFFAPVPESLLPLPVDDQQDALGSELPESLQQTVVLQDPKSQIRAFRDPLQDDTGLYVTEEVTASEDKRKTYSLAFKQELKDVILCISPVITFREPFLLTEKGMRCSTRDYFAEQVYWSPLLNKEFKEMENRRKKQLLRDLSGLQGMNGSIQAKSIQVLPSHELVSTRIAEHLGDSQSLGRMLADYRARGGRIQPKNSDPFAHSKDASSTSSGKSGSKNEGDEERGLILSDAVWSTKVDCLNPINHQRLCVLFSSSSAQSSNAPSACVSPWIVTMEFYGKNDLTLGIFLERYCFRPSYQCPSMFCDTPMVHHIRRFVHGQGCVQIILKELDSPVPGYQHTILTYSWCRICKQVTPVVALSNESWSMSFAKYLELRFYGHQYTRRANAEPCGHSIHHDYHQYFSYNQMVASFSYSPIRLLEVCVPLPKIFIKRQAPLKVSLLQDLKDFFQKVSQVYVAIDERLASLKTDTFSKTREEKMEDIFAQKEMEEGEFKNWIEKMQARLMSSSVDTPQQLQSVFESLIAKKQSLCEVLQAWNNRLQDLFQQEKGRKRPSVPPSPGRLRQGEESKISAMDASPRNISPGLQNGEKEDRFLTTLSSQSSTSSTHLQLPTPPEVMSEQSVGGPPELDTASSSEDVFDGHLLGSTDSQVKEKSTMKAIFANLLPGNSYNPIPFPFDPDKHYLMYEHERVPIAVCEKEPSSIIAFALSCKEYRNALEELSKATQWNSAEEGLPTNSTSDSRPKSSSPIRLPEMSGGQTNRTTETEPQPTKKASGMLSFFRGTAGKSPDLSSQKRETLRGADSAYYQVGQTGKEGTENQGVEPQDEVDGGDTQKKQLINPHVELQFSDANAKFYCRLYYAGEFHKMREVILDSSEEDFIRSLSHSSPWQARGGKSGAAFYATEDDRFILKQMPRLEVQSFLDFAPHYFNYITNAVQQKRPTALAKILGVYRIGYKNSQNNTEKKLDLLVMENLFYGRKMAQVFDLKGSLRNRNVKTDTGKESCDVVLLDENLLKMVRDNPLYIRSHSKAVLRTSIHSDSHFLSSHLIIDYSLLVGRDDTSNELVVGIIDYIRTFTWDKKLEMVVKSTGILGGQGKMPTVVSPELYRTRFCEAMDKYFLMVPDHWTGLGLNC

Row | Structure (SMILES) | IC50 [nM]
1 | CC(C)(C)OC(=O)N1CCC=C(c2ccn(-c3nc(N4CCOCC4)c4ncccc4n3)n2)C1 [Compound 5, tert-butyl 3-(1-(4-morpholinopyrido[3,2-d]pyrimidin-2-yl)-1H-pyrazol-3-yl)-5,6-dihydropyridine-1(2H)-carboxylate] | > 10000
2 | c1cncc(-c2ccn(-c3nc(N4CCOCC4)c4ncccc4n3)n2)c1 [Compound 13, 4-(2-(3-(pyridin-3-yl)-1H-pyrazol-1-yl)pyrido[3,2-d]pyrimidin-4-yl)morpholine] | 1000 to 10000
3 | c1cnc2c(N3CCOCC3)nc(-n3ccc(-c4ccncc4)n3)nc2c1 [Compound 14, 4-(2-(3-(pyridin-4-yl)-1H-pyrazol-1-yl)pyrido[3,2-d]pyrimidin-4-yl)morpholine] | 1000 to 10000
4 | COc1ccc(-c2ccn(-c3nc(N4CCOCC4)c4ncccc4n3)n2)cc1 [Compound 17, 4-(2-(3-(4-methoxyphenyl)-1H-pyrazol-1-yl)pyrido[3,2-d]pyrimidin-4-yl)morpholine] | 100 to 1000
5 | CC(C)c1ccn(-c2nc(N3CCOCC3)c3ncccc3n2)n1 [Compound 18, 4-(2-(3-isopropyl-1H-pyrazol-1-yl)pyrido[3,2-d]pyrimidin-4-yl)morpholine] | > 10000
6 | Fc1ccccc1-c1ccn(-c2nc(N3CCOCC3)c3ncc(C4CCOCC4)cc3n2)n1 [Compound 19, 4-[2-[3-(2-fluorophenyl)pyrazol-1-yl]-7-tetrahydropyran-4-yl-pyrido[3,2-d]pyrimidin-4-yl]morpholine] | 100 to 1000
7 | c1ccc(-c2ccn(-c3nc(N4CCOCC4)c4ncc(C5CCOCC5)cc4n3)n2)nc1 [Compound 21, 4-[2-[3-(2-pyridyl)pyrazol-1-yl]-7-tetrahydropyran-4-yl-pyrido[3,2-d]pyrimidin-4-yl]morpholine] | 100 to 1000
8 | COc1ccc(-c2ccn(-c3nc(N4CCOCC4)c4ncc(C5=CCOCC5)cc4n3)n2)cc1 [Compound 29, 4-(7-(3,6-dihydro-2H-pyran-4-yl)-2-(3-(4-methoxyphenyl)-1H-pyrazol-1-yl)pyrido[3,2-d]pyrimidin-4-yl)morpholine] | 100 to 1000
9 | COc1ccc(-c2ccn(-c3nc(N4CCOCC4)c4ncc(C5CCOCC5)cc4n3)n2)cc1 [Compound 30, 4-(2-(3-(4-methoxyphenyl)-1H-pyrazol-1-yl)-7-(tetrahydro-2H-pyran-4-yl)pyrido[3,2-d]pyrimidin-4-yl)morpholine] | 100 to 1000
10 | CC1COCCN1c1nc(-n2ccc(-c3ccccc3)n2)nc2cccnc12 (centres unmarked) [Compound 31, 3-methyl-4-(2-(3-phenyl-1H-pyrazol-1-yl)pyrido[3,2-d]pyrimidin-4-yl)morpholine] | 100 to 1000
11 | Brc1cnc2c(N3CCOCC3)nc(-n3ccc(-c4ccccc4)n3)nc2c1 [Compound 33, 4-(7-bromo-2-(3-phenyl-1H-pyrazol-1-yl)pyrido[3,2-d]pyrimidin-4-yl)morpholine] | 100 to 1000
12 | COc1ccc(Cc2ccn(-c3nc(N4CCOCC4)c4ncc(C5=CCOCC5)cc4n3)n2)cc1 [Compound 35, 4-(7-(3,6-dihydro-2H-pyran-4-yl)-2-(3-(4-methoxybenzyl)-1H-pyrazol-1-yl)pyrido[3,2-d]pyrimidin-4-yl)morpholine] | 100 to 1000
13 | CN1CCC(c2cnc3c(N4CCOCC4)nc(-n4ccc(-c5ccccc5)n4)nc3c2)CC1 [Compound 37, 4-(7-(1-methylpiperidin-4-yl)-2-(3-phenyl-1H-pyrazol-1-yl)pyrido[3,2-d]pyrimidin-4-yl)morpholine] | 10 to 100
14 | Cc1cc(-c2ccccc2)nn1-c1nc(N2CCOCC2)c2ncccc2n1 [Compound 39, 4-(2-(5-methyl-3-phenyl-1H-pyrazol-1-yl)pyrido[3,2-d]pyrimidin-4-yl)morpholine] | > 10000
15 | c1ccc(-c2ccn(-c3nc(N4CCOCC4)c4ncc(N5CCOCC5)cc4n3)n2)cc1 [Compound 41, 4-[4-morpholino-2-(3-phenylpyrazol-1-yl)pyrido[3,2-d]pyrimidin-7-yl]morpholine] | 10 to 100
16 | c1ccc(-c2ccn(-c3nc(N4CCOCC4)c4ncc(N5CCNCC5)cc4n3)n2)cc1 [Compound 42, 4-[2-(3-phenylpyrazol-1-yl)-7-piperazin-1-yl-pyrido[3,2-d]pyrimidin-4-yl]morpholine] | 10 to 100
17 | COc1cccc(-c2cnn(-c3nc(N4CCOCC4)c4ncc(C(=O)O)cc4n3)c2)c1 [Compound 44, 2-(4-(3-methoxyphenyl)-1H-pyrazol-1-yl)-4-morpholinopyrido[3,2-d]pyrimidine-7-carboxylic acid] | 10 to 100
18 | c1cc(Oc2nc(N3CCOCC3)c3ncccc3n2)cc(-c2cn[nH]c2)c1 [Compound 47, 4-(2-(3-(1H-pyrazol-4-yl)phenoxy)pyrido[3,2-d]pyrimidin-4-yl)morpholine] | > 10000
19 | c1ccc(-c2ccn(-c3nc(N4CCOCC4)c4ncc(-c5ccncc5)cc4n3)n2)cc1 [Compound 48, 4-(2-(3-phenyl-1H-pyrazol-1-yl)-7-(pyridin-4-yl)pyrido[3,2-d]pyrimidin-4-yl)morpholine] | 10 to 100

The remaining lines, values ahead:

Row | IC50 [nM] | Structure (SMILES)
20 | 10 to 100 | c1ccc(-c2ccn(-c3nc(N4CCOCC4)c4nc(C5CCOCC5)ccc4n3)n2)cc1 [Compound 9, 4-[2-(3-phenylpyrazol-1-yl)-6-tetrahydropyran-4-yl-pyrido[3,2-d]pyrimidin-4-yl]morpholine]
21 | < 10 | c1ccc(-c2cnn(-c3nc(N4CCOCC4)c4ncc(C5CCOCC5)cc4n3)c2)cc1 [Compound 10, 4-[2-(4-phenylpyrazol-1-yl)-7-tetrahydropyran-4-yl-pyrido[3,2-d]pyrimidin-4-yl]morpholine]
22 | < 10 | COc1cccc(-c2ccn(-c3nc(N4CCOCC4)c4ncc(C5=CCOCC5)cc4n3)n2)c1 [Compound 16, 4-(7-(3,6-dihydro-2H-pyran-4-yl)-2-(3-(3-methoxyphenyl)-1H-pyrazol-1-yl)pyrido[3,2-d]pyrimidin-4-yl)morpholine]
23 | 10 to 100 | Fc1ccc(-c2ccn(-c3nc(N4CCOCC4)c4ncc(C5CCOCC5)cc4n3)n2)cc1 [Compound 20, 4-[2-[3-(4-fluorophenyl)pyrazol-1-yl]-7-tetrahydropyran-4-yl-pyrido[3,2-d]pyrimidin-4-yl]morpholine]
24 | 10 to 100 | Fc1cccc(-c2ccn(-c3nc(N4CCOCC4)c4ncc(C5CCOCC5)cc4n3)n2)c1 [Compound 22, 4-[2-[3-(3-fluorophenyl)pyrazol-1-yl]-7-tetrahydropyran-4-yl-pyrido[3,2-d]pyrimidin-4-yl]morpholine]
25 | 10 to 100 | COc1cccc(-c2ccn(-c3nc(N4CCOCC4)c4ncccc4n3)n2)c1 [Compound 27, 4-(2-(3-(3-methoxyphenyl)-1H-pyrazol-1-yl)pyrido[3,2-d]pyrimidin-4-yl)morpholine]
26 | < 10 | COc1cccc(-c2cnn(-c3nc(N4CCOCC4)c4ncccc4n3)c2)c1 [Compound 28, 4-(2-(4-(3-methoxyphenyl)-1H-pyrazol-1-yl)pyrido[3,2-d]pyrimidin-4-yl)morpholine]
27 | 10 to 100 | Cc1cnc2c(N3CCOCC3)nc(-n3ccc(-c4ccccc4)n3)nc2c1 [Compound 34, 4-(7-methyl-2-(3-phenyl-1H-pyrazol-1-yl)pyrido[3,2-d]pyrimidin-4-yl)morpholine]
28 | 10 to 100 | c1ccc(-c2ccn(-c3nc(N4CCOCC4)c4ncc(C5CCNCC5)cc4n3)n2)cc1 [Compound 36, 4-(2-(3-phenyl-1H-pyrazol-1-yl)-7-(piperidin-4-yl)pyrido[3,2-d]pyrimidin-4-yl)morpholine]
29 | < 10 | c1ccc(-c2cnn(-c3nc(N4CCOCC4)c4ncc(N5CCOCC5)cc4n3)c2)cc1 [Compound 40, 4,4′-(2-(4-phenyl-1H-pyrazol-1-yl)pyrido[3,2-d]pyrimidine-4,7-diyl)dimorpholine]
30 | < 10 | COC(=O)c1cnc2c(N3CCOCC3)nc(-n3cc(-c4cccc(OC)c4)cn3)nc2c1 [Compound 43, methyl 2-(4-(3-methoxyphenyl)-1H-pyrazol-1-yl)-4-morpholinopyrido[3,2-d]pyrimidine-7-carboxylate]
31 | < 10 | COc1cccc(-c2cnn(-c3nc(N4CCOCC4)c4ncc(CO)cc4n3)c2)c1 [Compound 45, (2-(4-(3-methoxyphenyl)-1H-pyrazol-1-yl)-4-morpholinopyrido[3,2-d]pyrimidin-7-yl)methanol]
32 | < 10 | Oc1cccc(-c2cnn(-c3nc(N4CCOCC4)c4ncccc4n3)c2)c1 [Compound 46, 3-(1-(4-morpholinopyrido[3,2-d]pyrimidin-2-yl)-1H-pyrazol-4-yl)phenol]
